Source: patent US7067666B2, “7-substituted camptothecin and camptothecin analogs and methods for producing the same” (priority 2003, dated 2006)
In brackets after ≈: the same amount, converted by molar mass.

experiment: Solubility in methylene chloride (standard method for ascertaining lipophilicity); type: physicochemical; conditions: not given
Source text: Throughout the present application many CPT compounds have been defined with a substituent X as shown in structure I or II where X is defined and many substituents are shown. With the exception of the simple substituents where R is C1-5 alkyl (which can be prepared by the method of Sawada et al. (Chem. Pharm. Bull. 39, 2574-2580 ([…]))), the other compounds recited herein can not be made by conventional methods, but require, to the best of the inventors' knowledge, the use of the method of the present invention. Using the method of Sawada et al, the yield of alkyl became progressively lower essentially terminating where R is C5 alkyl. All other R substituents shown herein can be made only by the present method involving Grignard reactions, especially analogs like 7-t-butyl-10,11-methylenedioxy-CPT, 7-trimethylsilylmethyl-10,11-methylenedioxy-CPT, 7-naphthylmethyl-10,11-methylenedioxy-CPT, 7-p-fluorophenyl-10,11-methylenedioxy-CPT, 7-p-trifluoromethyl-10,11-methylenedioxy-CPT, and 7-p-tolyl-10,11-methylenedioxy-CPT. A number of compounds made by this method have shown unusual properties. For example, Table 1 gives the methylene chloride solubility of a number of compounds which are made by the methods described by this patent. For example, 7-butyl-10-aminocamptothecin made by this procedure is remarkably lipophilic. 10-Aminocamptothecin has a solubility of —0.2 mg/ml. […] It has been found by several groups that lipophilic substituents at the 7 position have excellent activity in the inhibition of topoisomerase I and in in vitro and in vivo cancer therapy.
We have utilized a standard method for ascertaining the lipophilicity of a number of camptothecin analogs. This involves the solubility in methylene chloride. This solvent is an excellent solvent for fat-soluble compounds. As can be noted with only one exception, compounds with the 7-butyl substituent are considerably more soluble than those without this constituent. Thus camptothecin is soluble only to the extent of 0.6 mg/ml whereas 7-butyl-camptothecin has a solubility of 20 mg/ml. 10-Amino-camptothecin is soluble only to the extent of 0.2 mg/ml. Very unexpectedly, 7-butyl-10-amino-camptothecin is very soluble at 145 mg/ml. It is also conceivable that camptothecin analogs with 7-pentyl or 7-hexyl substituents or 7-cyclopentyl or 7-cyclohexyl substituents will have increased solubility.

Row | Compound | Solubility [µg/mL] | solubility in methylene chloride [µg/mL]
1 | CCC1(O)C(=O)OCc2c1cc1n(c2=O)Cc2cc3cc4c(cc3nc2-1)OCCO4 (centres unmarked) [10,11-ED-CPT, reference compound] | 200 (≈ 492 µM) | 
2 | CC[C@@]1(O)C(=O)OCc2c1cc1n(c2=O)Cc2c-1nc1cc3c(cc1c2-c1ccc(C)cc1)OCO3 [7-p-Tolyl-10,11-MD-CPT, 7-p-Tolyl-10,11-MD-20(S)-Camptothecin] | 4600 (≈ 9530 µM) | 
3 | 7-Benzyl-10,11-CPT | 1800 | 
4 | 7-Butyl-9-methyl-CPT | 180 | 
5 | CCCCc1c2c(nc3ccc(OC)cc13)-c1cc3c(c(=O)n1C2)COC(=O)C3(O)CC (centres unmarked) [7-Butyl-10-methoxy-CPT] | 2000 (≈ 4600 µM) | 
6 | CCC1(O)C(=O)OCc2c1cc1n(c2=O)Cc2cc3c(C)cccc3nc2-1 (centres unmarked) [Example 9-Methyl-CPT, 9-Methyl-CPT, reference compound] | 100 (≈ 276 µM) | 
7 | CCCCc1c2c(nc3cc4c(cc13)OCO4)-c1cc3c(c(=O)n1C2)COC(=O)[C@]3(O)CC [7-Butyl-10,11-MD-CPT] | 8500 (≈ 19000 µM) | 
8 | CC[C@@]1(O)C(=O)OCc2c1cc1n(c2=O)Cc2cc3cc(OC)ccc3nc2-1 [10-Methoxy-CPT, reference compound] | 3000 (≈ 7930 µM) | 
9 | CCC(C)c1c2c(nc3ccccc13)-c1cc3c(c(=O)n1C2)COC(=O)C3(O)CC (centres unmarked) [7-(sec)Butyl-CPT] | 33000 (≈ 81600 µM) | 
10 | CCCCc1c2c(nc3cc4c(cc13)OCCO4)-c1cc3c(c(=O)n1C2)COC(=O)C3(O)CC (centres unmarked) [7-Butyl-10,11-ED-CPT] | 7000 (≈ 15100 µM) | 
11 | CCC1(O)C(=O)OCc2c1cc1n(c2=O)Cc2cc3c(N)c4c(cc3nc2-1)OCO4 (centres unmarked) [9-Amino-10,11-MD-CPT, reference compound] | <20 | 
12 | CC[C@@]1(O)C(=O)OCc2c1cc1n(c2=O)Cc2cc3cc(N)ccc3nc2-1 [Example 10-Amino-CPT, 10-Aminocamptothecin, reference compound] | 200 (≈ 550 µM) | 200 (≈ 550 µM)
13 | CC[C@@]1(O)C(=O)OCc2c1cc1n(c2=O)Cc2c-1nc1cc3c(cc1c2-c1ccc(F)cc1)OCO3 [7-p-Fluorophenyl-10,11-MD-CPT, 7-p-Fluorophenyl-10,11-MD-20(S)-Camptothecin] | 2550 (≈ 5240 µM) | 
14 | CCCCc1c2c(nc3ccc(O)cc13)-c1cc3c(c(=O)n1C2)COC(=O)[C@]3(O)CC [7-Butyl-10-OH-CPT] | <50 | 
15 | CC[C@@]1(O)C(=O)OCc2c1cc1n(c2=O)Cc2cc3c(N)cccc3nc2-1 [Example 9-Amino-CPT, 9-Amino-CPT, reference compound] | <30 | 
16 | CCCCc1c2c(nc3ccc(N)cc13)-c1cc3c(c(=O)n1C2)COC(=O)[C@]3(O)CC [7-Butyl-10-Amino-CPT, 7-n-Butyl-10-Amino-20(S)-Camptothecin] | 145000 (≈ 346000 µM) | 
17 | CC[C@@]1(O)C(=O)OCc2c1cc1n(c2=O)Cc2c-1nc1cc3c(cc1c2-c1ccc(Cl)cc1)OCO3 [7-p-Chlorophenyl-10,11-MD-CPT, 7-p-Chlorophenyl-10,11-MD-20(S)-Camptothecin] | 6300 (≈ 12500 µM) | 
18 | CC[C@@]1(O)C(=O)OCc2c1cc1n(c2=O)Cc2c-1nc1cc3c(cc1c2Cc1ccccc1)OCO3 [7-Benzyl-10,11-MD-CPT, 7-Benzyl-10,11-MD-20(S)-Camptothecin] | 1800 (≈ 3730 µM) | 
19 | CCC1(O)C(=O)OCc2c1cc1n(c2=O)Cc2cc3c([N+](=O)[O-])c4c(cc3nc2-1)OCO4 (centres unmarked) [9-Nitro-10,11-MD-CPT, reference compound] | 250 (≈ 572 µM) | 
20 | CCCCc1c2c(nc3ccccc13)-c1cc3c(c(=O)n1C2)COC(=O)C3(O)CC (centres unmarked) [Example 7-Butyl-CPT, 7-butyl-camptothecin] | 20000 (≈ 49400 µM) | 20000 (≈ 49400 µM)

same assay, conditions: Solubility in CH2Cl2

Row | Compound | Solubility [µg/mL]
21 | CC[C@@]1(O)C(=O)OCc2c1cc1n(c2=O)Cc2cc3ccccc3nc2-1 [Camptothecin] | 600 (≈ 1720 µM)
22 | CC[C@@]1(O)C(=O)OCc2c1cc1n(c2=O)Cc2cc3cc4c(cc3nc2-1)OCO4 [10,11-MD-CPT, 10,11-methylenedioxy-CPT, reference compound] | <8
23 | CC[C@@]1(O)C(=O)OCc2c1cc1n(c2=O)Cc2cc3cc(O)ccc3nc2-1 [Example 10-OH-CPT, 10-OH-CPT, reference compound] | <40

same assay, conditions: organic solvent or mixture; methylene chloride; read-out: solubility in methylene chloride

Row | Compound | Solubility [µg/mL]
24 | CC[C@@]1(O)C(=O)OCc2c1cc1n(c2=O)Cc2cc3ccccc3nc2-1 [Camptothecin] | 600 (≈ 1720 µM)
